Tests used:
[1] = system: neuropathic pain (mechanical allodynia) in SCI, LSS and SNI animal models; test: Mechanical allodynia (von Frey, 50% threshold) in SCI, LSS and SNI neuropathic pain models; format: in vivo, Sprague-Dawley rats; details: i.p. 5 mg/kg; at 1 hour after administration
Procedure: To be used as a central nerve injury animal model, a traumatic spinal cord injury (SCI) model was prepared (FIG. 1A). Specifically, 230 to 250 g of male adult Sprague-Dawley rats were anesthetized by intraperitoneal injection of chloral hydrate (500 mg/kg), and then the back and neck regions were shaved, and the spinal cord under the back and neck regions was exposed without damaging the dura mater, and a laminectomy was performed at T9 to T10 levels. To stabilize the spine, the spinous processes of T8 and T11 were fixed, and the spine was damaged by free-falling a 10 g weight from a height of 25 mm using an NYU impactor onto the back surface of the exposed spinal cord and then the rats were left in a temperature and humidity-controlled chamber overnight while covering the muscles and skin. After surgery, the rats were subcutaneously injected with a supplement solution (5 ml, lactated ringer) and injected with antibiotics (gentamicin, 5 mg/kg, intramuscular injection) once daily for 5 days. The body weight, remaining food, and the weight of water were confirmed and recorded for all animals, and the bladder was emptied twice daily by passive bladder massage until reflex micturition was established. At this time, a Sham group was a group that was subjected to only laminectomy without damage.
To be used as a peripheral nerve injury animal model, a lumbar spinal stenosis (LSS) model was prepared (FIG. 1B). Specifically, 260 to 280 g of adult male Sprague-Dawley rats were anesthetized with intraperitoneal injection of chloral hydrate (500 mg/kg), the back region was shaved, and then the spinal plate was exposed at L4 to S2 levels. After removing the ligamentous section between L4 and L5, a trapezoidal silicone block (1.00 mm long×1.3 to 1.2 mm wide×1.0 mm high) was inserted into the epidural space below the L5 and L6 spinal plates without damaging the dural sac. At this time, a Sham group was a group that was subjected to only posterior […] on the animal without inserting a silicone block.
To be used as a peripheral nerve injury animal model, a sciatic nerve injury (SNI) model was prepared (FIG. 1C). Specifically, 200 to 220 g of male adult Sprague-Dawley rats were anesthetized by intraperitoneal injection of chloral hydrate (500 mg/kg), and then three terminal branches (tibial, common peroneal, and sural nerves) of the right sciatic nerve were approached, and the tibia nerve and the peroneal nerve were tightly ligated with 4-0 silk, and neurectomy was performed at a distal 3 mm position of the ligation site. At this time, a Sham group was a group that exposed only the sciatic nerve without damage.
In order to confirm a neuropathic pain inhibitory effect of YJ102 (Chemical Formula 1), a compound of the present disclosure, in the three nerve injury animal models prepared in Example 1 above, rats having pain on week 3 (SNI model) or week 4 (SCI model and LSS model) after surgery were selected and administered orally (p.o.) at 10 mg/kg or 20 mg/kg of YJ102 dissolved in a solution of DMSO, methyl pyrrolidinone, and water (1:1.5:1), or intraperitoneally injected (i.p. injection) at 1, 2, or 5 mg/kg of YJ102. In a positive control group, gabapentin or pregabalin dissolved in saline was intraperitoneally injected at a concentration of 5 mg/kg, and in a Vehicle group, the same amount of a solution of DMSO, methyl pyrrolidinone, and water was administered. Thereafter, in order to measure mechanical allodynia, the rats were located at the bottom of a transparent plastic box (10 cm×10 cm) on top of a wire mesh (3 mm×3 mm) and subjected to an adaptation period for approximately 20 minutes. Von-Frey filaments were applied to the soles of both paws and used with stiff nylon von-Frey monofilament series ([…], Stoelting, WoodDale, IL, USA; equivalent in grams to 0.4, 0.6, 1.0, 2.0, 4.0, 6.0, 8.0 and 15.0) with logarithmic increases in tactile (mechanical) sensitivity. […]

sedation = test: Sedation as side effect of the drug; format: in vivo, Sprague-Dawley rats

| SMILES | analgesic effect [1] | sedation (sedation; 50 mg/kg) | sedation (sedation; 20 mg/kg) |
| --- | --- | --- | --- |
| NCC1(CC(=O)O)CCCCC1 [gabapentin, reference compound] | significant analgesic effect | sedation as a side effect of the drug was observed | – |
| CC(C)C[C@H](CN)CC(=O)O [pregabalin, reference compound] | significant analgesic effect | – | sedation as a side effect of the drug was observed |

— patent publication US20260335293A1, “USE OF NOVEL COMPOUND FOR TREATING INTRACTABLE DISEASES” (YJ CERAPEUTICS INC., priority 2023, published 2026)
